{"source": "patent US11117921B2", "about": "“Methods for synthesizing nucleotide analogues with disulfide linkers” (IsoPlexis Corporation, priority 2015, dated 2021)", "data": [{"assay": "Cleavage experiments with thiol cleavage agents, RP-HPLC (FIG. 77, 78A-B)", "conditions": "RP-HPLC after 10 minutes of incubation with cleave reagent", "text": "In addition to these a variety of suitable cleaving agents can be used such as Bis(2-mercaptoethyl)sulfone (BMS) and N,N′-dimethyl-N,N-bis(mercaptoacetyl)hydrazine (DMH) (Singh et al., Bioorg. Chem., 22, 109-115 (1994). Reactions can be further catalyzed by inclusion of selenols (Singh et al. Anal Biochem. 1995 Nov. 20; 232(1):86-91 [18]). Borohydrides, such as sodium borohydrides can also be used for this purpose (Stahl et al., Anal. Chem., 1957, 29 (1), pp 154-155 [19]) as well as ascorbic acid (Nardai et al., J. Biol. Chem. 276, 8825-8828 (2001)). In addition, enzymatic methods for cleavage of disulfide bonds are also well known such as disulfide and thioreductase and can be used with compounds of the present invention (Holmgren et al., Methods in Enzymology, Volume 252, 1995, Pages 199-208 [21]).", "values": [{"smiles": "N[C@@H](CS)C(=O)O", "note": "[L-cysteine]", "composition of cleavage reaction mixture (extent of cleavage)": "full cleavage of both linker and the 3′-protective groups"}, {"smiles": "O[C@H](CS)[C@H](O)CS", "note": "(racemic) [DTT, dithiothreitol]", "composition of cleavage reaction mixture (extent of cleavage)": "full cleavage of both linker and the 3′-protective groups"}, {"smiles": "NCCS", "note": "[cysteamine]", "composition of cleavage reaction mixture (extent of cleavage)": "full cleavage of both linker and the 3′-protective groups"}, {"smiles": "OC(=S)CCC(O)=S", "note": "[dithiosuccinic acid]", "composition of cleavage reaction mixture (extent of cleavage)": "selective cleavage of 3′-O-protective group"}]}]}
